Assay: Antioxidant activity in egg yolk liposomes assessed as inhibition of ADP/Fe(2+)-induced lipid peroxidation after 15 mins by TBARS method
Format: functional

SMILES	IC50 [µM]
COc1cc(CNC(=O)CCCC/C=C/C(C)C)cc(-c2cc(CNC(=O)CCCCCCC(C)C)cc(OC)c2O)c1O	> 10
Cc1c(C)c2c(c(C)c1O)CC[C@@](C)(CCC[C@H](C)CCC[C@H](C)CCCC(C)C)O2 [ALPHA-TOCOPHEROL]	250

From ChEMBL document CHEMBL1146573, “Antioxidant activity of a new capsaicin derivative from Capsicum annuum” (J Nat Prod, 2003)
